# Test results reported in ChEMBL document CHEMBL4219259, “Molecular Determinants Conferring the Stoichiometric-Dependent Activity of α-Conotoxins at the Human α9α10 Nicotinic Acetylcholine Receptor Subtype” (J Med Chem, 2018).
# Peptide text beside a SMILES is read from it.
# Columns and labels:
# [1] = target: T1, Neuronal acetylcholine receptor; alpha9/alpha10 (Homo sapiens) (UniProt Q9UGM1+Q9GZZ6); experiment: Inhibition of human alpha9 N154G mutant/alpha10 nACHR (3:1) expressed in Xenopus laevis oocyte assessed as inhibition of ACh induced channel current at 1 uM measured for 2 to 5 days at -80 mV holding potential by two electrode voltage clamp method
# [2] = target: T1, Neuronal acetylcholine receptor; alpha9/alpha10 (Homo sapiens); experiment: Inhibition of human alpha9/alpha10 nACHR (4:1) expressed in Xenopus laevis oocyte assessed as inhibition of ACh induced channel current at 1 uM measured for 2 to 5 days at -80 mV holding potential by two electrode voltage clamp method
# [3] = target: T1, Neuronal acetylcholine receptor; alpha9/alpha10 (Homo sapiens); experiment: Inhibition of human alpha9/alpha10 nACHR (2:3) expressed in Xenopus laevis oocyte assessed as inhibition of ACh induced channel current at 1 uM measured for 2 to 5 days at -80 mV holding potential by two electrode voltage clamp method
# [4] = target: Neuronal acetylcholine receptor; alpha9/alpha10 (Homo sapiens, UniProt Q9GZZ6+Q9UGM1, G154N); experiment: Inhibition of human alpha9/alpha10 G154N mutant nACHR (1:3) expressed in Xenopus laevis oocyte assessed as inhibition of ACh induced channel current measured for 2 to 5 days at -80 mV holding potential by two electrode voltage clamp method
# [5] = target: T1, Neuronal acetylcholine receptor; alpha9/alpha10 (Homo sapiens); experiment: Inhibition of human alpha9 N154G mutant/alpha10 nACHR (1:3) expressed in Xenopus laevis oocyte assessed as inhibition of ACh induced channel current at 1 uM measured for 2 to 5 days at -80 mV holding potential by two electrode voltage clamp method
# Homo sapiens [6] = organism: Homo sapiens; experiment: Ratio of IC50 for human alpha9/alpha10 nACHR (1:3) to IC50 for human alpha9 N154G mutant/alpha10 nACHR (1:3)
# [7] = target: T2, Neuronal acetylcholine receptor; alpha9/alpha10 (Homo sapiens, UniProt Q9GZZ6+Q9UGM1, N154G); experiment: Inhibition of human alpha9 N154G mutant/alpha10 nACHR (1:3) expressed in Xenopus laevis oocyte assessed as inhibition of ACh induced channel current measured for 2 to 5 days at -80 mV holding potential by two electrode voltage clamp method
# [8] = target: T3, Neuronal acetylcholine receptor; alpha9/alpha10 (Homo sapiens, UniProt Q9GZZ6+Q9UGM1); experiment: Inhibition of human alpha9/alpha10 nACHR (1:1) expressed in Xenopus laevis oocyte assessed as inhibition of ACh induced channel current measured for 2 to 5 days at -80 mV holding potential by two electrode voltage clamp method
# [9] = target: T2, Neuronal acetylcholine receptor; alpha9/alpha10; experiment: Inhibition of human alpha9 N154G mutant/alpha10 nACHR (3:1) expressed in Xenopus laevis oocyte assessed as inhibition of ACh induced channel current measured for 2 to 5 days at -80 mV holding potential by two electrode voltage clamp method
# [10] = target: T3, Neuronal acetylcholine receptor; alpha9/alpha10; experiment: Inhibition of human alpha9/alpha10 nACHR (3:1) expressed in Xenopus laevis oocyte assessed as inhibition of ACh induced channel current measured for 2 to 5 days at -80 mV holding potential by two electrode voltage clamp method
# [11] = target: T3, Neuronal acetylcholine receptor; alpha9/alpha10; experiment: Inhibition of human alpha9/alpha10 nACHR (1:3) expressed in Xenopus laevis oocyte assessed as inhibition of ACh induced channel current measured for 2 to 5 days at -80 mV holding potential by two electrode voltage clamp method
# Homo sapiens [12] = organism: Homo sapiens; experiment: Ratio of IC50 for human alpha9/alpha10 nACHR (3:1) to IC50 for human alpha9 N154G mutant/alpha10 nACHR (3:1)
# [13] = target: T1, Neuronal acetylcholine receptor; alpha9/alpha10 (Homo sapiens); experiment: Inhibition of human alpha9/alpha10 nACHR (3:2) expressed in Xenopus laevis oocyte assessed as inhibition of ACh induced channel current at 1 uM measured for 2 to 5 days at -80 mV holding potential by two electrode voltage clamp method
# T3 sequence (Q9UGM1 whole entry): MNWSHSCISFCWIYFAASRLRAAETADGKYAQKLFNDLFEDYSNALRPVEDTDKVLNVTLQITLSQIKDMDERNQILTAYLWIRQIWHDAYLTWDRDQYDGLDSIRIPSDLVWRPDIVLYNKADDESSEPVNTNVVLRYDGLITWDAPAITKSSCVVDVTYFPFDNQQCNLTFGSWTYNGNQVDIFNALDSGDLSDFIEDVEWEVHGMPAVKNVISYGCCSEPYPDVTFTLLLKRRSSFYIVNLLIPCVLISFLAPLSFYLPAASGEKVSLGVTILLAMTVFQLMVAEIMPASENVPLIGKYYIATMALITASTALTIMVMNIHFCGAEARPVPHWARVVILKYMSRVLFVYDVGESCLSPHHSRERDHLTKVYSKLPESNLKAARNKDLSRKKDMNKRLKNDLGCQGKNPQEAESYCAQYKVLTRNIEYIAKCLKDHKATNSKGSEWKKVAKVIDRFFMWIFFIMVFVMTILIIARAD
# T3 sequence (Q9GZZ6 whole entry): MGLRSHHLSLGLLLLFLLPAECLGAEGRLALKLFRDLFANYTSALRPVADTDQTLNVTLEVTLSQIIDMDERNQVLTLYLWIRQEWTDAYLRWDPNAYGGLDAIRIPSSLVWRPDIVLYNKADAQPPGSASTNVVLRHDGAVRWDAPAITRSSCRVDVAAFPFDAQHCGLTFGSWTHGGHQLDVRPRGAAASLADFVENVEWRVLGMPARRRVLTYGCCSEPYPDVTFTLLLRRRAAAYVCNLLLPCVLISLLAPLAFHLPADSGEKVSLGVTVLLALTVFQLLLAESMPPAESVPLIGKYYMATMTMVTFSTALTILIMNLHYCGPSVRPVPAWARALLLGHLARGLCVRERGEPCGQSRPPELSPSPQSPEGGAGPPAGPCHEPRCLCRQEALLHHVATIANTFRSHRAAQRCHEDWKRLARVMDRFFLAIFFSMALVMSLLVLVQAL
# T2 sequence (Q9GZZ6 whole entry, looked up, stated change not applied): as the sequence (Q9GZZ6 whole entry) above
# T2 sequence (Q9UGM1 whole entry, looked up, stated change not applied): as the sequence (Q9UGM1 whole entry) above
# Sequence of Neuronal acetylcholine receptor; alpha9/alpha10 (Homo sapiens, UniProt Q9GZZ6+Q9UGM1, G154N) (Q9GZZ6 whole entry, looked up, stated change not applied): as the sequence (Q9GZZ6 whole entry) above
# Sequence of Neuronal acetylcholine receptor; alpha9/alpha10 (Homo sapiens, UniProt Q9GZZ6+Q9UGM1, G154N) (Q9UGM1 whole entry, looked up, stated change not applied): as the sequence (Q9UGM1 whole entry) above
Structure (SMILES),inhibition [1],inhibition [2],inhibition [3],IC50 [4],inhibition [5],Ratio IC50 (Homo sapiens [6]),IC50 [7],IC50 [8],IC50 [9],IC50 [10],IC50 [11],Ratio IC50 (Homo sapiens [12]),inhibition [13]
"CC[C@H](C)[C@@H]1NC(=O)[C@H](CCC(=O)O)NC(=O)[C@@H]2CCCN2C(=O)[C@H](Cc2ncc[nH]2)NC(=O)[C@H](CC(=O)O)NC(=O)[C@H](Cc2ccc(O)cc2)NC(=O)[C@H](CC(N)=O)NC(=O)[C@@H]2CSSC[C@H](NC(=O)CN)C(=O)N[C@@H](CSSC[C@@H](C(N)=O)NC1=O)C(=O)N[C@@H](CO)C(=O)N[C@@H](CC(=O)O)C(=O)N1CCC[C@H]1C(=O)N[C@@H](CCCNC(=N)N)C(=O)N2 (HELM PEPTIDE1{G.C.C.S.D.P.R.C.N.Y.D.[O=C([C@H](Cc1ncc[nH]1)N[*:1])[*:2]].P.E.I.C.[am]}$PEPTIDE1,PEPTIDE1,2:R3-8:R3|PEPTIDE1,PEPTIDE1,3:R3-16:R3$$$V2.0)",21.8%,65.8%,25.5%,0.75 µM,19.5%,3,11.3 µM,1 µM,17 µM,0.75 µM,3.57 µM,23,65.8%
"CC[C@H](C)[C@@H]1NC(=O)[C@H](CC(N)=O)NC(=O)[C@@H]2CCCN2C(=O)[C@H](Cc2ncc[nH]2)NC(=O)[C@H](CC(=O)O)NC(=O)[C@H](Cc2ccc(O)cc2)NC(=O)[C@H](CC(N)=O)NC(=O)[C@@H]2CSSC[C@H](NC(=O)CN)C(=O)N[C@@H](CSSC[C@@H](C(N)=O)NC1=O)C(=O)N[C@@H](CO)C(=O)N[C@@H](CC(=O)O)C(=O)N1CCC[C@H]1C(=O)N[C@@H](CCCNC(=N)N)C(=O)N2 (HELM PEPTIDE1{G.C.C.S.D.P.R.C.N.Y.D.[O=C([C@H](Cc1ncc[nH]1)N[*:1])[*:2]].P.N.I.C.[am]}$PEPTIDE1,PEPTIDE1,2:R3-8:R3|PEPTIDE1,PEPTIDE1,3:R3-16:R3$$$V2.0)",,,,,,,10.2 µM,,8.59 µM,10.8 µM,17.5 µM,,
"N=C(N)NCCC[C@@H]1NC(=O)[C@H](Cc2ccc(O)cc2)NC(=O)[C@H](CCCNC(=N)N)NC(=O)[C@@H]2CSSC[C@H](NC(=O)CN)C(=O)N[C@@H](CSSC[C@@H](C(N)=O)NC1=O)C(=O)N[C@@H](CO)C(=O)N[C@@H](CC(=O)O)C(=O)N1CCC[C@H]1C(=O)N[C@@H](CCCNC(=N)N)C(=O)N2 (HELM PEPTIDE1{G.C.C.S.D.P.R.C.R.Y.R.C.[am]}$PEPTIDE1,PEPTIDE1,2:R3-8:R3|PEPTIDE1,PEPTIDE1,3:R3-12:R3$$$V2.0)",,,,,,,,249 µM,,,,,
"CC(C)[C@@H]1NC(=O)[C@H](CO)NC(=O)[C@@H]2CSSC[C@H](NC(=O)CN)C(=O)N[C@@H](CSSC[C@@H](C(N)=O)NC(=O)[C@H](CCCCN)NC(=O)[C@H](CC(N)=O)NC(=O)[C@@H]3CCCN3C(=O)[C@H](Cc3ncc[nH]3)NC(=O)[C@H](CC(=O)O)NC1=O)C(=O)N[C@@H](CO)C(=O)N[C@@H](CC(=O)O)C(=O)N1CCC[C@H]1C(=O)N[C@@H](CCCNC(=N)N)C(=O)N2 (HELM PEPTIDE1{G.C.C.S.D.P.R.C.S.V.D.[O=C([C@H](Cc1ncc[nH]1)N[*:1])[*:2]].P.N.K.C.[am]}$PEPTIDE1,PEPTIDE1,2:R3-8:R3|PEPTIDE1,PEPTIDE1,3:R3-16:R3$$$V2.0)",,,,,,,13 µM,,15.2 µM,9.3 µM,13.2 µM,,
